{"source": "patent US4529602A", "about": "“Method for treatment or prophylaxis of gastro-intestinal disease” (priority 1981, dated 1985)", "key": {"Shay rat ulcers": {"test_system": "Shay rat ulcers", "test": "Effect on Shay rat ulcers (pylorus-ligated)", "assay_type": "in vivo, Male SD-strain rats", "conditions": "17 h", "procedure": "Male SD-strain rats (6 to 7 weeks old) were starved for 48 hours and then the pylori were ligated. Immediately after ligation, a solution or suspension of a test compound in distilled water was administered orally into the stomachs in an amount of 0.2 ml per 100 g of body weight (Dose: 200 or 300 mg/kg). Seventeen hours after the administration of the test compound, the degree of ulceration in forestomach was examined according to the method of Takagi et al (Chem. Pharm. Bull., 11(10), pp. 1282-1290 (1963)) with a modified scoring system. Depending on the diameter of each lesions, the ulcers were classified into the following 4 grades. Ulcer index was calculated by the sum of the number of ulcers in each degree multiplied by respective ulcer score. Further, based on the ulcer index determined above, the preventive effect of the test compound on Shay rat ulcer was calculated by the following formula: [formula] (Results)"}, "urinary electrolytes [1]": {"test_system": "urinary electrolytes", "test": "Effect on urine volume and urinary electrolytes (Experiment 7)", "assay_type": "in vivo, Male SD-strain rats", "conditions": "50 mg/kg oral", "procedure": "Male SD-strain rats (6 to 7 weeks old) were starved overnight, and a physiological saline solution (3 ml/100 g of body weight) was orally administered to the rats. One hour later, a solution or suspension of a test compound in a 0.25% CMC-physiological saline solution was administered orally to the rats in an amount of 3 ml per 100 g of body weight (Dose: 50 and 500 mg/kg). Immediately after administration of the test compound, the rats were placed into metabolic cages (2 rats per cage) and deprived of water and food for 5 hours. The urine samples which were excreted during a 5 hour period were collected. Sodium and potassium in the urine were estimated by a flame photometer (Hitachi Model-205)."}, "urinary electrolytes [2]": {"test_system": "urinary electrolytes", "test": "Effect on urinary electrolytes (Experiment 8)", "assay_type": "in vivo, Male SD-strain rats", "conditions": "for Urine volume: 4 h, control 5.7 ± 0.6; for Na/K ratio: 4 h urine, control 6.1 ± 0.3", "procedure": "Male SD-strain rats (6 to 7 weeks old, one group: 5-8 rats) were starved overnight, and a physiological saline solution (3 ml/100 g of body weight) was orally administered to the rats. One hour later, a solution of a test compound in a 0.25% CMC-physiological saline solution was administered orally to the rats in an amount of 3 ml per 100 g of body weight (Dose: 50, 500 or 1,000 mg/kg). Immediately after administration of the test compound, the rats were placed into metabolic cages (one rat per cage) and deprived of water and food for 4 hours. The urine samples which were excreted during a 4 hour period were collected. Sodium and potassium in the urine were estimated by a flame photometer (Hitachi Model-205)."}, "[3]": {"test_system": "experimentally-induced gastric ulceration", "conditions": "in words, known; cited from earlier work"}, "human gastric ulcer": {"test_system": "human gastric ulcer", "conditions": "in words, numerous clinical trials; cited from earlier work"}, "[4]": {"test_system": "mineralo-corticoid- or aldosterone-like effect", "conditions": "in vivo; cited from earlier work"}, "pepsin secretion": {"test_system": "pepsin secretion", "test": "Preventive effect on pepsin secretion in pylorus-ligated rats", "assay_type": "in vivo, Male SD-strain rats", "conditions": "100 mg/kg oral, 5 h after administration, hydrate", "procedure": "(§1) Preventive effect on acid and pepsin secretions\n(§2) Male SD-strain rats (6 to 7 weeks old) were starved for 48 hours, and then the pylori were ligated. Immediately after ligation, a solution or suspension of a test compound in distilled water was administered orally into the stomachs in an amount of 0.2 ml per 100 g of body weight (Dose: 100 mg/kg). Five hours after said administration of the test compound, the rats were sacrificed and the stomachs were removed. The gastric contents were centrifuged at 2,500 rpm for 10 minutes and the gastric juice was collected as the supernatant. The concentration of pepsin in the gastric juice was determined by Anson's method (c.f., J. Gen. Physiol., 22, pp. 77-89 (1938)) using hemoglobin as the substrate, and the preventive effect of the test compound on the pepsin secretion was estimated in terms of \"decrease in pepsin concentration\" according to the following formula: [formula]"}, "gastric acid secretion": {"test_system": "gastric acid secretion", "test": "Preventive effect on gastric acid secretion in pylorus-ligated rats", "assay_type": "in vivo, Male SD-strain rats", "conditions": "100 mg/kg oral, 5 h after administration, hydrate", "procedure": "as §1, §2\nOn the other hand, the concentration of free acid in the gastric juice was determined by titrating said gastric juice to pH 7.0 with 0.1N NaOH, and the preventive effect of the test compound on the gastric acid secretion was estimated in terms of \"the decrease in acidity of gastric juice\" according to the following formula: [formula] (Results)"}, "stress-induced ulcers": {"test_system": "stress-induced ulcers", "test": "Effect on stress-induced ulcers", "assay_type": "in vivo, Male ddY-strain mice", "conditions": "100 mg/kg oral, 16 h water immersion", "procedure": "Male ddY-strain mice (4 weeks old) weighing about 20 g were starved for about 7 hours. A solution of a test compound in distilled water was administered orally to the mice in an amount of 0.1 ml per 10 g of body weight (Dose: 100 mg/kg). Immediately after administration of the test compound, the mice were placed in a stress cage and immersed to the level of the cervix in a water bath (24±0.5° C.) for 16 hours. Then, the stomach was removed and slightly inflated by injecting 1.2 ml of a 1% formalin solution to fix the inner layers of the gastric walls. The stomach was then incised along the greater carvature, and the number of ulcerations was examined."}, "aspirin-induced ulcers": {"test_system": "aspirin-induced ulcers", "test": "Effect on aspirin-induced ulcers", "assay_type": "in vivo, Male Donryu-strain rats", "conditions": "p.o. 2 m mol./kg (847 mg/kg); aspirin 200 mg/kg", "procedure": "Male Donryu-strain rats (8 to 9 weeks old) were starved overnight, and a solution or suspension of a test compound in distilled water was administered orally into the stomachs in an amount of one ml per 100 g of body weight. Half an hour later, a suspension of aspirin in 0.25% CMC solution was administered orally to the rats in an amount of 0.5 ml per 100 g of body weight (Dose: 200 mg/kg). Four hours after the administration of aspirin, the rats were sacrificed and the stomachs were removed and inflated by injecting 10 ml of 1% formalin solution to fix the inner layers of the gastric walls. The stomach was then incised along the greater curvature and the lengths of the lesions were measured and summated to give ulcer index (in mm) for each animal. The preventive effect of the test compound on aspirin-induced ulcers were calculated by the following formula: [formula] (Results)"}, "gastric mucus secretion": {"test_system": "gastric mucus secretion", "test": "Effect on gastric mucus secretion (alcian blue binding)", "assay_type": "in vivo, Male Sprague-Dawley rats", "conditions": "100 mg/kg oral, 1 h, hydrate", "procedure": "Stimulating effect of a test compound on gastric mucus secretion was examined by the method of Corne et al. (J. Physiol., 242, pp. 116-117(1974); J. Pharm. Pharmacol., 33, pp. 348-352(1981)). Male Sprague-Dawley rats (6-7 weeks old; one group: 6 rats) were fasted for 20 hours before the experiments. Water was given ad libitum and coprophagy was prevented by using cages with wide-mesh floors. A test compound dissolved or suspended in distilled water was administered orally to the rats at a dose of 100 mg/kg. One hour after the administration of the test compound, the stomachs were dissected, opened along the greater curvature, rinsed in ice-cold 0.25M sucrose, and the rumen was discarded. Then, the stomachs were incubated in 10 ml of a 0.15M sucrose-0.05M sodium acetate solution (pH 5.8) containing alcian blue (1 mg/ml), at room temperature for 1.5 hours. Finally, the stomachs were placed in 15 ml of a 0.5M magnesium chloride solution for 2 hours with occasional shaking and then removed, and the magnesium chloride solution was shaken briefly with 10 ml of diethyl ether. The optical density of the aqueous layer was read at 605 nm, and the degree of alcian blue binding was expressed as μg alcian blue/g of tissue. The stimulating effect of the test compound on gastric mucus secretion was estimated in terms of \"the increase in alcian blue binding\" which was calculated by the following formula: [formula] (Results)"}, "gastric mucous membrane": {"test_system": "gastric mucous membrane", "test": "Protective effect on gastric mucous membrane (excised stomach in artificial gastric juice)", "design": "species or system Male Sprague-Dawley rats", "conditions": "37° C., 60 min, hydrate; for Amount of tyrosine: control 2.42 ± 0.15", "procedure": "Protective effect of a test compound on gastric mucous membrane was examined by the method of Diago et al. (Yakugaku Zasshi, 101, 452-457(1981)). Male Sprague-Dawley rats (6-7 weeks old; one group: 5 rats) were fasted for 20 hours before the experiments. Water was given ad libitum and coprophagy was prevented by using cages with wide-mesh floors. The stomach was excised, opened along the greater curvature, rinsed in physiological saline solution, and the rumen was discarded. The stomach was incubated in 10 ml of an artificial gastric juice (100 mM HCl, 0.3% pepsin, 0.2% NaCl) containing a test compound, at 37° C. for 60 minutes. After the incubation, 2 ml of 7% trichloroacetic acid were added to 0.5 ml of medium, and the mixture was centrifuged. The amount of tyrosine in the supernatant was measured by using Folin-Ciocelteu reagent (J. gen. Physiol., 16, 59-63(1932)), and expressed as mg tyrosine/g tissue. The protective effect of the test compound on gastric mucous membrane was estimated in terms of \"the inhibition of digestion of mucous membrane\" which was calculated by the following formula: [formula] (Results)"}, "rats": {"test_system": "rats", "test": "Acute oral toxicity in rats (Experiment 10)", "assay_type": "in vivo", "conditions": "male SD-strain rats, 7 days, hydrate, 10080 min", "procedure": "After male SD-strain rats (6-7 weeks old) were starved for 20 hours, a solution or suspension of a test compound in distilled water was administered orally to the rats in an amount of one ml per 100 g of body weight. After administration of the test compound, the rats were allowed free access to water and food."}, "[5]": {"conditions": "1 mg/ml in artificial gastric juice"}, "[6]": {"conditions": "4 mg/ml in artificial gastric juice"}}, "note": "Structures can show the parent of a compound that is named as a salt.", "data": [{"smiles": "CC1(C)[C@@H](OC(=O)CCC(=O)O)CC[C@]2(C)[C@H]3C(=O)C=C4[C@@H]5C[C@@](C)(C(=O)O)CC[C@]5(C)CC[C@@]4(C)[C@]3(C)CC[C@@H]12", "note": "[Carbenoxolone disodium salt, 3-β-hydroxy-11-oxoolean-12-en-30-oic acid hydrogen succinate, reference compound]", "values": [{"measurement": "Preventive effect on Shay rat ulcers", "setting": "Shay rat ulcers; 300 mg/kg oral", "value": 40, "unit": "%"}, {"measurement": "Urine volume", "setting": "urinary electrolytes [1]; 5 h, 2 rats per cage, control 12.3", "value": 9.3, "unit": "mL"}, {"measurement": "Na/K", "setting": "urinary electrolytes [1]; 5 h urine, control 5.8", "value": 3.2}, {"measurement": "Urine volume", "setting": "urinary electrolytes [2]; 50 mg/kg p.o.", "value": "5.2 ± 0.3", "unit": "mL"}, {"measurement": "Na/K ratio", "setting": "urinary electrolytes [2]; 50 mg/kg p.o., * = significantly different (p < 0.01) from control", "value": "3.7 ± 0.3"}, {"measurement": "protection from experimentally-induced gastric ulceration", "setting": "[3]", "value": "known to protect animals from experimentally-induced gastric ulceration"}, {"measurement": "gastric anti-ulcer effect in human gastric ulcer patients", "setting": "human gastric ulcer", "value": "effective gastric anti-ulcer agent"}, {"measurement": "aldosterone-like side effect", "setting": "[4]", "value": "has an aldosterone-like side effect"}]}, {"smiles": "CC(C)c1cc2c(cc1S(=O)(=O)O)[C@@]1(C)CCC[C@@](C)(C(=O)O)[C@@H]1CC2", "note": "[Sulfodehydroabietic acid disodium salt, 1,4a-dimethyl-1-carboxy-6-sulfo-7-isopropyl-1,2,3,4,4a,9,10,10a-octahydro-phenanthrene disodium salt 81/2 hydrate]", "values": [{"measurement": "Decrease (%) in pepsin concentration", "setting": "pepsin secretion", "value": 92, "unit": "%"}, {"measurement": "Decrease (%) in acidity of gastric juice", "setting": "gastric acid secretion", "value": 54, "unit": "%"}, {"measurement": "Preventive effect on Shay rat ulcers", "setting": "Shay rat ulcers; 200 mg/kg oral, hydrate", "value": 93, "unit": "%"}, {"measurement": "decrease in the number of stress-induced ulcers", "setting": "stress-induced ulcers", "value": 22, "unit": "%"}, {"measurement": "Preventive effect on aspirin-induced ulcers", "setting": "aspirin-induced ulcers", "value": 82, "unit": "%"}, {"measurement": "Alcian blue binding", "setting": "gastric mucus secretion; control (water) 198.5 ± 6.4", "value": "247.7 ± 18.4", "unit": "μg/g tissue"}, {"measurement": "Increase (%) in alcian blue binding", "setting": "gastric mucus secretion", "value": 25, "unit": "%"}, {"measurement": "Amount of tyrosine", "setting": "gastric mucous membrane; [5]", "value": "1.64 ± 0.12", "unit": "mg/g tissue"}, {"measurement": "Inhibition (%) of digestion of mucous membrane", "setting": "gastric mucous membrane; [5]", "value": 32, "unit": "%"}, {"measurement": "Amount of tyrosine", "setting": "gastric mucous membrane; [6]", "value": "0.82 ± 0.07", "unit": "mg/g tissue"}, {"measurement": "Inhibition (%) of digestion of mucous membrane", "setting": "gastric mucous membrane; [6]", "value": 66, "unit": "%"}, {"measurement": "Urine volume", "setting": "urinary electrolytes [2]; 500 mg/kg p.o.", "value": "4.8 ± 0.4", "unit": "mL"}, {"measurement": "Na/K ratio", "setting": "urinary electrolytes [2]; 500 mg/kg p.o.", "value": "7.4 ± 1.0"}, {"measurement": "Urine volume", "setting": "urinary electrolytes [2]; 1000 mg/kg p.o.", "value": "4.3 ± 0.3", "unit": "mL"}, {"measurement": "Na/K ratio", "setting": "urinary electrolytes [2]; 1000 mg/kg p.o.", "value": "5.9 ± 0.4"}, {"measurement": "LD50", "setting": "rats", "value": "> 2000", "unit": "mg/kg"}]}]}
